Assay results: paper PMC9037180, “Ligand-based design and synthesis of N'-Benzylidene-3,4-dimethoxybenzohydrazide derivatives as potential antimicrobial agents; evaluation by in vitro, in vivo, and in silico approaches with SAR studies” (Journal of Enzyme Inhibition and Medicinal Chemistry, 2022)
Values after ≈ are worked out from the molar mass of the structure shown.

Experiments:
C. albicans = assay: Minimal bactericidal concentration (MBC); assay type: cell-based; details: Candida albicans
Protocol: (§1) After determining the MIC for the target compounds, the minimal bactericidal concentration (MBC) for each compound that is required to kill each one of the above-mentioned microorganisms was assessed.

A. baumanii = assay: Minimal bactericidal concentration (MBC); assay type: cell-based; details: Acinetobacter baumannii
Protocol: as §1

[1] = test system: Acientobacter (A. baumanii) ATCC 19606; assay: Agar well diffusion assay; assay type: cell-based; details: result in words
Protocol: (§2) The agar well diffusion assay was first done to evaluate the antimicrobial activities of the different target compounds (4a–j) against gram-positive bacteria, gram-negative bacteria, and fungi (Table 1A). […] First, the antibacterial activities were tested against S. aureus ATCC 6538, Acientobacter (A. baumanii) ATCC 19606, S. typhi, E. coli, and P. aeruginosa as examples of the most common gram-positive and gram-negative bacteria, in comparison to vancomycin and ceftriaxone as two reference standards. In addition, the antifungal activities were screened against C. albicans, in comparison to amphotericin as a reference standard. […] The antibacterial activities of some tested compounds (4a, 4b, 4h, and 4e) against gram-positive and gram-negative bacteria by agar well diffusion assay are represented in the supplementary data (Figure SI1).
(§3) A modification of the agar well diffusion method[55] was done to detect the antimicrobial activities of different compounds (4a–j) against gram-positive bacteria, gram-negative bacteria, and fungi. The work was carried out at the Microbiology Department Faculty of Medicine for Girls Al-Azhar University. By visual comparison to 0.5 McFarland turbidity standards, a suspension of each bacterial strain was prepared. The zones of inhibition were measured in cm.

E. coli = assay: Agar well diffusion assay; assay type: cell-based; details: result in words
Protocol: as §2, §3

S. aureus = assay: H&E histological examination of liver and kidney, S. aureus infected rats; assay type: in vivo
Protocol: Rats were divided randomly into equal fifteen groups, each containing 9 rats as follows: • Group 1: Rats were kept on standard laboratory chow and water ad libitum to serve as a control. • Group 2: Rats have injected IP with sterile distilled water (4ml/kg) daily for one week to serve as a control. • Group 3: Rats have injected IP with DEMSO (dimethyl sulfoxide) (4 ml/kg) daily for one week to serve as a control. • Group 4: Rats have injected IP with 4h (1.9 mg/kg) daily for one week. • Group 5: Rats have injected IP with 4h (3.8 mg/kg) daily for one week. • Group 6: Rats have injected IP with 4i (1.9 mg/kg) daily for one week. • Group 7: Rats have injected IP with 4i (3.8 mg/kg) daily for one week. • Group 8: Rats were infected by a single IM injection of S. aureus strain [1.0 ml) 1 × 10^7) colony-forming units]. • Group 9: Rats have injected IP with 4h (1.9 mg/kg) daily for one week on the 7th day after induction of infection by a single IM injection of S. aureus strain [1.0 ml (1 × 10^7) colony-forming units. • Group 10: Rats have injected IP with 4h (3.8 mg/kg) daily for one week on the 7th day after induction of infection by a single IM injection of S. aureus strain [1.0 ml (1 × 10^7) colony-forming units]. • Group 11: Rats were infected by a single IM injection of S. typhi strain [1.0 ml (1 × 10^7) colony forming units). • Group 12: Rats have injected IP with 4h (1.9 mg/kg) daily for one week. on the 7th day after induction of infection by a single IM injection of S. typhi strain [1.0 ml (1 × 10^7) colony-forming units]. • Group 13: Rats have injected IP with 4h (3.8 mg/kg) daily for one week on the 7th day after infection by a single IM injection of S. typhi strain [1.0 ml (1 × 10^7) colony-forming units]. • Group 14: Rats have injected IP with 4i (1.9 mg/kg) daily for one week. on the 7th day after induction of infection by a single IM injection of S. typhi strain [1.0 ml (1 × 10^7) colony-forming units]. • Group 15: Rats have injected IP with 4i (3.8 mg/kg) daily for one week. on the 7th day after induction of infection by a single IM injection of Salmonella strain [1.0 ml (1 × 10^7) colony-forming units].
At the end of the experiment, the animals were euthanized through cervical dislocation. After that, the liver and kidney were dissected for histological study. The procedure for histological preparations was described by Bancroft and Stevens[73]. Briefly, liver and kidney tissues were sliced to 3–4 mm thick, fixed in 10% neutral buffered formalin (10% NBF), dehydrated in graded concentrations of ethanol, cleared in xylene, and embedded in paraffin. The paraffin blocks were sectioned with a microtome at (4–6 μm) thickness and dyed with H & E stain to study the general tissue structure.

Aciento sensitive = assay: Minimal bactericidal concentration (MBC); assay type: cell-based, A. baumanii; details: Aciento sensitive
Protocol: as §1

S. typhi = assay: Agar well diffusion assay; assay type: cell-based; details: result in words
Protocol: as §2, §3

P. aeruginosa = assay: Agar well diffusion assay; assay type: cell-based; details: result in words
Protocol: as §2, §3

S. aureus ATCC 6538 = assay: Agar well diffusion assay; assay type: cell-based; details: result in words
Protocol: as §2, §3

Compound | MBC (C. albicans) [µM] | MBC (A. baumanii) [µM] | zones of inhibition (inhibitory activity) [1] | zones of inhibition (inhibitory activity) (E. coli) | kidney pathological changes (H&E) (S. aureus; high dose (3.8 mg/kg)) | liver pathological changes (H&E) (S. aureus; high dose (3.8 mg/kg)) | kidney pathological changes (H&E) (S. aureus; low dose (1.9 mg/kg)) | liver pathological changes (H&E) (S. aureus; low dose (1.9 mg/kg)) | MBC (Aciento sensitive) [µM] | zones of inhibition (inhibitory activity) (S. typhi) | zones of inhibition (inhibitory activity) (P. aeruginosa) | zones of inhibition (inhibitory activity) (S. aureus ATCC 6538)
COc1ccc(C(=O)NN=Cc2ccc3ccccc3n2)cc1OC [Compound 4i, N'-(quinolin-2-ylmethylene)-3,4-dimethoxybenzohydrazide] | 186 (≈ 62.5 µg/mL) | 186 (≈ 62.5 µg/mL) | most inhibitory activity | superior inhibitory activity | – | – | – | – | – | – | – | –
N'-((3a,7a-dihydro-1H-indol-3-yl)methylene)-3,4-dimethoxybenzohydrazide [Compound 4h] | – | – | – | – | marked improved renal tissue | marked improvement in the pathological changes | improved pathological changes | improved pathological changes | 96.87 | best activities | best activities | best activities
